Measured values: patent publication US12521409B2, “Cognition” (priority 2023, dated 2026)
Entries after “also recorded” stand apart in the source; their conditions may differ.

Legend:
[1] = system: TG2576 mice; assay: Plasma glutamate and glutamine by LC-MS in TG2576 mice on TAG-supplemented diet (Example 1B); details: mouse, in vivo
[2] = system: TG2576 mice; assay: UDP N-acetyl glucosamine in brain tissue of TG2576 mice on TAG-supplemented diet, LC-MS/MS (Example 2B); format: in vivo, mouse
Description: After 6 weeks brains were excised and bisected in the sagittal plane. The hemi-brains were stored frozen (−80° C.) then thawed, weighed and homogenized in 10 volumes of MeOH/MeCN/H2O (50%/30%/20%, v/v/v). Homogenates were centrifuged at 5000 rpm for 30 min. The supernatant was passed through 1 kDa MW centrifugal filters then evaporated and resuspended in the HPLC mobile phase. UDP N-acetyl glucosamine was run on a mixed-mode hydrophilic HPLC column (150 mm×4.6 mm id, Primesep N, by SIELC), with guard under a linear gradient of 80% acetonitrile and 10 mM ammonium formate pH 4.3 to 10% MeCN and 10 mM ammonium formate over 9 min, then return to starting conditions over 1 min. UDP N-acetyl glucosamine in brain extracts was quantified against commercial standard UDP N-acetyl glucosamine detected by mass spectrometry (MS-MS) in negative ion mode, scanning for m/z 606 and identification of major collision fragments m/z 385 and 403. UDP levels were corrected for brain mass. The effect of diet was calculated using 1-tailed t-test.

[3] = system: TG2576 mice; assay: Morris water maze, spatial memory in TG2576 mice (Example 3B); format: in vivo, mouse; details: TAG diet
Excerpt: The Morris water maze (MWM) has been used to measure spatial memory deficit in TG2576 mice. Mice are placed in a tub of water and containing a submerged platform. The amount of time required for a mouse to swim to the platform is referred to as the maze “escape time”. There are two testing stages in the water maze: 1. VISIBLE STAGE, in which the position of the platform is made visible by a marker pole attached to the platform, and 2. HIDDEN STAGE where the marker pole is removed and the water made opaque by the addition of white paint. Compared to wild type siblings, older TG2576 mice show increased latency to escape time.
The maze consisted of a 715 mm diameter tub filled to a depth of 70 mm. For VISIBLE STAGE testing, mice were placed in the water maze and the time they took to reach the platform was recorded with a stop watch. This testing was carried out 8 times per day for 3 days, during which the platform was moved to various positions around the maze. The walls of the maze were inscribed with 4 distinct shapes that were provided as spatial cues for learning. The HIDDEN STAGE testing was carried out for 7 days, 4 times per day. The position of the platform was fixed, but mice were placed in the maze at different positions for each test.
[…].
As subjects learned to navigate and find the hidden platform, their escape time was reduced. […]

For tetra-acetyl glucosamine [TAG], the “Plasma concentration of glutamate” value [1] was 1.05 ± 0.094 RU/ml, the “Plasma concentration of glutamine” value [1] was 6.77 ± 1.05 RU/ml and the “Plasma glutamate level compared to control mice (in words)” value [1] was “significantly lower; also recorded: reduced”. The “Plasma glutamine level compared to control mice (in words)” value [1] was “trend of increased”, the “UDP N-acetyl glucosamine in brain” value ([2]; TG2576 mice, 0.45% (w/w) TAG diet for 6 weeks, n = 5, p=0.037 vs control diet) was 28.3 ± 2.13 ng/mg brain fwt and the “Increase in levels of UDP N-acetyl glucosamine in brain vs control diet” value ([2]; TG2576 mice, 6 weeks of TAG-supplemented diet) was 40%. The “UDP N-acetyl glucosamine in brain tissue compared to control (in words)” value ([2]; mice models of AD fed a diet supplemented with TAG) was “increased”, the “Effect on latency to escape time / spatial working memory in Morris water maze (in words)” value ([3]; after 7 days) was “decreased; also recorded: significantly improved” and the “Mean escape time ± SE” value ([3]; water maze after 7 days, n = 8, in s (unit assumed)) was 9.31 ± 0.80.
